Assay results published in US9421492B2, “Aminopyridine derivatives for removal of hydrogen sulfide from a gas mixture” (Dow Global Technologies LLC, priority 2011, dated 2016).

assay: Solubility in unbuffered water; conditions: unbuffered de-ionized water, 25° C., average of three experiments
Description: The experiment is repeated three times and the average solubilities are reported as weight percent (wt %) in Table 1.

| Solubility, wt % | Molecule |
| --- | --- |
| 5 wt % | Cc1cc(N(C)C)ccn1 [DMAPP, 2-methyl-4-(dimethylamino)pyridine] |
| 3 wt % | Cc1cc(N(C)C)cc(C)n1 [DMAPL, 2,6-dimethyl-4-(dimethylamino)pyridine] |
| 8 wt % | CN(C)c1ccncc1 [DMAP, 4-dimethylaminopyridine] |

| Molecule | Solubility, wt % |
| --- | --- |
| 1-hydroxyethyl-4-pyridynyl-pyperazine [HEPP] | 60 wt % |
